In patent publication US20230031406A1, “COMPOUNDS AND COMPOSITIONS FOR TREATING CONDITIONS ASSOCIATED WITH NLRP ACTIVITY” (Novartis AG, priority 2018, published 2023) one finds IC50 data, which are given here for 26 compounds.

Structures are written as SMILES. Read-outs that look alike come from different tables or passages of the source.

For the experiment, the system named is PMA-differentiated THP-1 cells. As to the kind of experiment: IL-1β production in PMA-differentiated THP-1 cells stimulated with gramicidin (hTHP-1 assay containing 2% fetal bovine serum; Procedures 1 and 2). Format: cell-based, human. Conditions: 2% fetal bovine serum. The gist of the method:
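PMA 20 ng/ml 16-18 h → trypsinise → 50,000 cells/well, RPMI/2% FBS; cpd 1 h (11-pt, 100–0.0017 μM; DMSO 0.37%); gramicidin 5 μM, 2 h; spin; supernatant IL-1β via HTRF.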

The mark [1] stands for this setting: Homo sapiens, THP-1, Table B1, class symbols, read-out: Average IC50 of compounds in hTHP-1 assay: hTHP-1 IC50.
[2] abbreviates: Homo sapiens, THP-1, Table B2, class symbols, read-out: hTHP-1 IC50.
Setting [3] is: Table B2, class symbols, read-out: hTHP-1 IC50.
Setting [4] is: Table B1, class symbols, read-out: Average IC50 of compounds in hTHP-1 assay: hTHP-1 IC50.

Take `CC(C)(O)c1cc(F)c(S(N)(=O)=NC(=O)Nc2c3c(nc4c2CCC42CC2)CCC3)s1` (centres unmarked) [Compound 101, 3-fluoro-5-(2-hydroxypropan-2-yl)-N′-((1′,5′,6′,7′-tetrahydro-2′H-spiro[cyclopropane-1,3′-dicyclopenta[b,e]pyridin]-8′-yl)carbamoyl)thiophene-2-sulfonimidamide]: the IC50 under setting [1] fell in the range of 40 to 200 nM.
Turning to `CC(C)(O)c1cnc(S(N)(=O)=NC(=O)Nc2c3c(nc4c2CCC4O)CCC3)s1` (centres unmarked) [Example 635, N′-((3-hydroxy-1,2,3,5,6,7-hexahydrodicyclopenta[b,e]pyridin-8-yl)carbamoyl)-5-(2-hydroxypropan-2-yl)thiazole-2-sulfonimidamide], where the note is “Homo sapiens, THP-1, Table B3, hTHP-1 assay, numeric values, read-out: IC50”, the IC50 is greater than 30000 nM.
Turning to `CC(C)(O)c1csc(S(N)(=O)=NC(=O)Nc2cc(CC(F)(F)F)nc3c2CCC3)c1` (centres unmarked) [Compound 607, 4-(2-Hydroxypropan-2-yl)-N′-((2-(2,2,2-trifluoroethyl)-6,7-dihydro-5H-cyclopenta[b]pyridin-4-yl)carbamoyl)thiophene-2-sulfonimidamide], the half-inhibitory concentration (IC50) under setting [2] lay in the range of 1000 to 5000 nM.
Regarding `Cc1c(C2CC2)nc2c(c1NC(=O)N=S(N)(=O)c1nc(C(C)(C)O)cs1)CCC2` (single isomer, unassigned) [Compound 626b, (R) or (S)-N′-((2-cyclopropyl-3-methyl-6,7-dihydro-5H-cyclopenta[b]pyridin-4-yl)carbamoyl)-4-(2-hydroxypropan-2-yl)thiazole-2-sulfonimidamide], the IC50 under setting [3] lay within 40 to 200 nM.
Consider `CC(C)(O)c1cc(F)c(S(N)(=O)=NC(=O)Nc2cc(CC(F)(F)F)nc3c2CCC3)s1` (centres unmarked) [Compound 602, 3-Fluoro-5-(2-hydroxypropan-2-yl)-N′-((2-(2,2,2-trifluoroethyl)-6,7-dihydro-5H-cyclopenta[b]pyridin-4-yl)carbamoyl)thiophene-2-sulfonimidamide], for which the IC50 under setting [2] lay within 1000 to 5000 nM.
`C[C@H]1CCc2c1nc1c(c2NC(=O)N=S(N)(=O)c2cnc([C@@](C)(O)CO)s2)CCC1` (single isomer, unassigned) [Example 729]: the IC50 (Homo sapiens, THP-1, Table B4, class symbols, read-out: hTHP-1 IC50) is 1000 to 5000 nM.
Take `Cc1nc2c(c(NC(=O)N=S(N)(=O)c3ncc(C(C)(C)O)s3)c1C1CC1)CCC2` (single isomer, unassigned) [Compound 618b, (R) or (S)-N′-((3-cyclopropyl-2-methyl-6,7-dihydro-5H-cyclopenta[b]pyridin-4-yl)carbamoyl)-5-(2-hydroxypropan-2-yl)thiazole-2-sulfonimidamide]: the IC50 under setting [2] was in the range of 200 to 1000 nM.
Take `CC(C)(O)c1cnc(S(N)(=O)=NC(=O)Nc2c3c(nc4c2CCC4(C)C)CCC3)s1` (single isomer, unassigned) [Compound 686b, (R) or (S)-N′-((3,3-dimethyl-1,2,3,5,6,7-hexahydrodicyclopenta [b,e]pyridin-8-yl)carbamoyl)-5-(2-hydroxypropan-2-yl)thiazole-2-sulfonimidamide]: the half-inhibitory concentration (IC50) under setting [3] is 5000 to 30000 nM.
Take `CC(C)(O)c1cccc(S(N)(=O)=NC(=O)Nc2c3c(nc4c2CCC4)CCC3)c1` (single isomer, unassigned) [Compound 625b, (R) or (S)-N′-((1,2,3,5,6,7-hexahydrodicyclopenta [b,e]pyridin-8-yl)carbamoyl)-3-(2-hydroxypropan-2-yl)benzene-sulfonimidamide]: the half-maximal inhibitory concentration (IC50) under setting [2] is 1000 to 5000 nM.
With `CN(C)Cc1ccc(S(N)(=O)=NC(=O)Nc2c3c(nc4c2CCC4(C)C)CCC3)cc1` (single isomer, unassigned) [Compound 125a, (S) or (R)-N′-((3,3-dimethyl-1,2,3,5,6,7-hexahydro-dicyclopenta[b,e]pyridin-8-yl)carbamoyl)-4-((dimethylamino)meth-yl)benzene-sulfonimidamide], the IC50 (Homo sapiens, THP-1, Table B1, numeric bounds, read-out: Average IC50 of compounds in hTHP-1 assay: hTHP-1 IC50) was greater than 30000 nM.
In the case of `CC1(C)CCc2c1nc1c(c2NC(=O)N=S(N)(=O)c2sc(C(C)(O)CO)cc2F)CCC1` (single isomer, unassigned) [Compound 640a, (R, R) and (S, R) or (R, S) and (S, S)-5-(1,2-Dihydroxypropan-2-yl)-N′-((3,3-dimethyl-1,2,3,5,6,7-hexahydrodicyclopenta [b,e]pyridin-8-yl)carbamoyl)-3-fluorotliophene-2-sulfonimidamide], the IC50 under setting [3] lay in the range of 8 to 40 nM.
In the case of `CC(C)(O)c1csc(S(N)(=O)=NC(=O)Nc2cc(C3CC3)nc3c2CCC3)c1` (single isomer, unassigned) [Compound 176b, (R) or (S)-N′-((2-cyclopropyl-6,7-dihydro-5H-cyclopenta[b]pyridin-4-yl)carbamoyl)-4-(2-hydroxypropan-2-yl)thiophene-2-sulfonimidamide], the IC50 under setting [2] lay in the range of 1000 to 5000 nM.
For the compound `CC(C)(O)c1csc(S(N)(=O)=NC(=O)Nc2c3c(nc4c2CCC4(C)C)CCC3)c1` (single isomer, unassigned) [Compound 127a, (S) or (R)-N′-((3,3-dimethyl-1,2,3,5,6,7-hexahydro-dicyclopenta[b,e]pyridin-8-yl)carbamoyl)-4-(2-hydroxypropan-2-yl)thiophene-2-sulfonimidamide], the IC50 under setting [4] fell in the range of 1000 to 5000 nM.
For `Cc1c(C(C)C)nc2c(c1NC(=O)N=S(N)(=O)c1cc(C(C)(C)O)cs1)CCC2` (centres unmarked) [Compound 681, 4-(2-Hydroxypropan-2-yl)-N′-((2-isopropyl-3-methyl-6,7-dihydro-5H-cyclopenta[b]pyridin-4-yl)carbamoyl)thiophene-2-sulfonimidamide], the IC50 under setting [2] was 40 to 200 nM.
For the compound `CC1(C)CCc2c1nc1c(c2NC(=O)N=S(N)(=O)c2sc(C(C)(O)CO)nc2CO)CCC1` (centres unmarked) [Example 598, 2-(1,2-Dihydroxypropan-2-yl)-N′-((3,3-dimethyl-1,2,3,5,6,7-hexahydrodicyclopenta[b,e]pyridin-8-yl)carbamoyl)-4-(hydroxymethyl)thiazole-5-sulfonimidamide], under “Homo sapiens, THP-1, Table B3, hTHP-1 assay, class symbols, read-out: IC50”, the IC50 is 200 to 1000 nM.
Take `C[C@@H]1CCc2c1nc1c(c2NC(=O)N=S(N)(=O)c2ccn(-c3ccccc3)n2)CCC1` (some centres unmarked) [Compound 646a]: the IC50 under setting [2] fell in the range of 1000 to 5000 nM.
Consider `CCn1ccc(S(N)(=O)=NC(=O)Nc2c3c(nc4c2CC[C@H]4C)CCC3)n1` (single isomer, unassigned) [Compound 634b, (R) or (S)-1-Ethyl-N′-(((R)-3-methyl-1,2,3,5,6,7-hexahydrodicyclopenta [b,e]pyridin-8-yl)carbamoyl)-1H-pyrazole-3-sulfonimidamide], for which the IC50 under setting [3] was in the range of 40 to 200 nM.
With `CC(C)(O)c1ncc(S(N)(=O)=NC(=O)Nc2cc(C(F)F)nc3c2CCC3)s1` (centres unmarked) [Compound 708], the IC50 (Homo sapiens, THP-1, Table B2, numeric bounds, read-out: hTHP-1 IC50) was greater than 30000 nM.
`Cc1cn(C(C)C)nc1S(N)(=O)=NC(=O)Nc1c2c(nc3c1CCC3)CCC2` (single isomer, unassigned) [Compound 687b, (R) or (S)-N′-((1,2,3,5,6,7-hexahydrodicyclopenta [b,e]pyridin-8-yl)carbamoyl)-1-isopropyl-4-methyl-1H-pyrazole-3-sulfonimidamide]: the IC50 under setting [2] was 5000 to 30000 nM.
In the case of `CC(C)(O)c1nc(CCO)c(S(N)(=O)=NC(=O)Nc2c3c(nc4c2CCC4)CCC3)s1` (single isomer, unassigned) [Compound 118a, (R) or (S)-N′-((1,2,3,5,6,7-hexahydrodicyclo-penta[b,e]pyridin-8-yl)carbamoyl)-4-(2-hydroxyethyl)-2-(2-hydroxypropan-2-yl)thiazole-5-sulfonimidamide], the IC50 under setting [1] is 200 to 1000 nM.
With `CC1CCc2c1nc1c(c2NC(=O)N=S(N)(=O)c2cc(C(C)(C)O)cs2)CCC1C` (centres unmarked) [Compound 131, N′-((3,5-dimethyl-1,2,3,5,6,7-hexahydrodicyclopenta[b,e]pyridin-8-yl)carbamoyl)-4-(2-hydroxypropan-2-yl)thiophene-2-sulfonimidamide], the IC50 under setting [4] fell in the range of 200 to 1000 nM.
With `CCc1cc(F)c(S(N)(=O)=NC(=O)Nc2c3c(nc4c2CC[C@H]4C)CCC3)s1` (single isomer, unassigned) [Compound 720a, (R) or (S)-5-Ethyl-3-fluoro-N′-(((R)-3-methyl-1,2,3,5,6,7-hexahydrodicyclopenta[b, e]pyridin-8-yl)carbamoyl)thiophene-2-sulfonimidamide], under setting [3], the concentration for half-maximal inhibition (IC50) was in the range of 200 to 1000 nM.
For the compound `Cc1c(C(F)(F)F)nc2c(c1NC(=O)N=[S@@](N)(=O)c1cnc(C(C)(C)O)s1)CCC2C` (some centres unmarked) [Compound 608d], the 50% inhibitory concentration (IC50) under setting [2] fell in the range of 1000 to 5000 nM.
`COC(C)(C)c1nc(CO)c(S(N)(=O)=NC(=O)Nc2c3c(nc4c2CCC4(C)C)CCC3)s1` (single isomer, unassigned) [Compound 648a, (R) or (S)-N′-((3,3-dimethyl-1,2,3,5,6,7-hexahydrodicyclopenta [b,e]pyridin-8-yl)carbamoyl)-4-(hydroxymethyl)-2-(2-methoxypropan-2-yl)thiazole-5-sulfonimidamide]: the IC50 under setting [2] was 200 to 1000 nM.
The same measure, in the same setting: to `Cc1nc2c(c(NC(=O)N=S(N)(=O)c3cc(C(C)(C)O)cs3)c1C1CC1)CCC2` (centres unmarked) [Compound 623, N′-((3-cyclopropyl-2-methyl-6,7-dihydro-5H-cyclopenta[b]pyridin-4-yl)carbamoyl)-4-(2-hydroxypropan-2-yl)thiophene-2-sulfonimidamide] belongs 200 to 1000 nM; to `Cc1c(C2CC2)nc2c(c1NC(=O)N=S(N)(=O)c1cc(C(C)(C)O)n(-c3ccccc3)n1)CCC2` (centres unmarked) [Compound 651, N′-((2-cyclopropyl-3-methyl-6,7-dihydro-5H-cyclopenta[b]pyridin-4-yl)carbamoyl)-5-(2-hydroxypropan-2-yl)-1-phenyl-1H-pyrazole-3-sulfonimidamide], 5000 to 30000 nM.

By IC50 is commonly meant the concentration needed to halve the response being measured.
